Assay results from US20250345356A1, “TIRAPAZAMINE COMPOSITIONS AND METHODS” (priority 2024, published 2025).
Several values for one entry are separate records, joined by “and”; a condition that tells them apart may be missing. Equal values may be shown once. Read-outs that look alike come from different tables or passages of the source.

Columns and labels:
[1] = tested on: HCC; conditions: cited from earlier work
[2] = mice, intravenous administration; cited from earlier work
[3] = tested on: HCC; conditions: cited from earlier work; remark: listed apart in the source
[4] = Activation energy of degradation from stability studies; type: physicochemical; conditions: formulation without HP-beta-CD, long-term stability results
Method: Activation energy (Ea) is the least possible energy required to start a chemical reaction. Molecules need some kinetic energy or velocity to collide with other molecules to start a reaction. No reaction will take place if the collision doesn't happen, or if the molecules don't have enough kinetic energy. The energy needed to initiate the reaction is known as Activation energy.
The activation energy (Ea) of a reaction is measured in joules (J), kilojoules per mole (kJ/mol) or kilocalories per mole (kcal/mol)
The Activation Energy Formula is as follows: […]
Where A is a constant, k is the rate constant, Ea is the activation energy of degradation in kcal/mol, R is the universal gast constant (1.98 calKmole) and I is the absolute temperature (° K).
In the formulation without HP-beta-CD, Ea of TPZ is calculated as 35 kcal/mole based on the long-term stability results. For the HP-beta-CD new formulation, Ea of the complex is calculated at 44 kcal/mole using a new formulation methodology called “Accelerated Stability Assessment Program (ASAP)” that can be executed in a few weeks with a few storage conditions and temperature ranging from 40° C. to 70° C. inclusive. The higher the activation energy, the more kinetically stable the complex is.

[5] = cited from earlier work
[6] = tested on: unresectable intermediate stage HCC; conditions: cited from earlier work
[7] = cited from earlier work; remark: listed apart in the source

## Nc1n[n+]([O-])c2ccccc2[n+]1[O-] [tirapazamine, 3-amino-1,2,4-benotriazine-1,4-di-N-oxide]
[1]; 17 patients
  CR or partial response (PR), objective response rate (ORR): 64.7%
  patients who achieved CR as the best target tumor lesion response: 47.1%
[1]; mRECIST criteria
  median Time to Progression: not reached
[2]
  LD10: 294 mg/kg
  LD50: 303 mg/kg
[3]; Day 1 post-treatment, tirapazamine 3 mg/kg, doxorubicin 10 mg/kg, transient left HAL
  necrosis in the HCC within the territory of HAL: more than 99%
[3]; Day 7, 3 mg/kg with left HAL, H&E
  necrosis of HCCs in the territory of the left HAL: 90-99%
[3]; Day 7, three mice, 3 mg/kg with left HAL, 3 mg/kg
  tumor necrosis, individual mice: 90% and 99% (2×)
[3]; Day 7, with left HAL
  necrosis in the tumor-free part of the left lobe of the liver: no evidence of necrosis
[4]
  activation energy of degradation (Ea): 35 kcal/mol
[5]; 3 mg/kg and 6 mg/kg i.v. with transient left HAL, Day 1
  necrosis of the left lobe of the liver (histopathology): 1%
[5]; 3 mg/kg or 6 mg/kg with left HAL
  survival after 1 and 7 days: survived
[5]; Day 1, dose-dependent
  serum alanine transaminase (ALT) level: elevated on Day 1
[5]; i.v. infusion
  potentially safe doses combined with transient left HAL: ≤ 6 mg/kg
[6]; 15 patients who achieved CR by mRECIST
  median duration of target lesion response: not reached
[6]; 21 patients who achieved CR or PR
  median duration of target lesion response: not reached
[6]; 27 patients
  treatment emergent AE grade 3 or higher: ALT increased: 11.1%
  treatment emergent AE grade 3 or higher: AST increased: 14.8%
  treatment emergent AE grade 3 or higher: hypertension: 25.9%
  treatment-related AE: ALT increased: 7.4%
  treatment-related AE: AST increased: 7.4%
  treatment-related AE: bradycardia: 7.4%
  treatment-related AE: fatigue: 7.4%
  treatment-related AE: hypertension: 11.1%
[6]; 46 target lesions
  CR rate by lesions: 65.2%
  ORR (CR+PR) by lesions: 78.3%
[6]; CR patients
  local recurrence in the embolized territory: 13.3%
[6]; CR+PR patients
  local recurrence in the embolized territory: 28.6%
[6]; all cohorts, with TAE
  dose-limiting toxicity (DLT): no dose-limiting toxicity
[6]; mRECIST, 25 evaluable patients
  patients who achieved CR in target lesions: 60.0%
  patients who achieved CR+PR: 84.0%
[6]; two phase I studies, tirapazamine with TAE
  Complete Response (CR) rate: 50-60%
[6]; up to 20 mg/m^2 I.A.
  MTD of tirapazamine in combination with TAE: not established
[7]; 36-450 mg/m^2 i.v.
  tumor responses: no tumor responses were seen
[7]; human, in vivo, 330 mg/m2
  AUC of tirapazamine at which ototoxicity was not observed: ≤ 1252 µg·min/mL
[7]; human, in vivo, iv
  Maximally Tolerated Dose (MTD): 390 mg/m^2
  dose-limiting toxicities: reversible deafness and tinnitus
  duration of cramps: 1 to 14 days
  mean Vdss: 39 ± 12.5 L
  mean clearance (±SD): 624.2 ± 157 mL/min
  onset of muscle cramps after the start of infusion: 2.4 to 24 h
[7]; human, in vivo
  increase in AUC(0-inf): ~19 fold
